For 27 compounds, T/C results are on record in PubChem BioAssay AID192 (DTP/NCI, 2004).

Where “and” joins values, the source holds several entries; their conditions need not be identical. Equal entries are not always repeated. Toxic doses and inconclusive results are not listed.

In this assay the test system is BDF1 mice, B16 melanoma ip, median survival T/C. Nature of the assay: NCI In Vivo Anticancer Drug Screen. Data for tumor model B16 Melanoma (intraperitoneal) in B6D2F1 (BDF1) mice. To be noted: endpoint: median survival time, higher = longer survival. The essentials:
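Mice with transplantable tumors; drug vs vehicle groups; endpoint survival or tumor size; value = T/C.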

[1] abbreviates: dose: 0.78 mg/kg/injection, schedule: Q01DX009 (ip), vehicle: saline.
The mark [2] stands for this setting: dose: 1.56 mg/kg/injection, schedule: Q01DX009 (ip), vehicle: saline.
Where [3] appears, read: dose: 3.12 mg/kg/injection, schedule: Q01DX009 (ip), vehicle: saline.
[4] abbreviates: dose: 6.25 mg/kg/injection, schedule: Q01DX009 (ip), vehicle: saline.
The mark [5] stands for this setting: dose: 50.0 mg/kg/injection, schedule: Q04DX003 (ip), vehicle: saline.
Setting [6] is: dose: 25.0 mg/kg/injection, schedule: Q01DX009 (ip), vehicle: Klucel (hydroxypropylcellulose) (HPC).
[7] abbreviates: dose: 50.0 mg/kg/injection, schedule: Q01DX009 (ip), vehicle: Klucel (hydroxypropylcellulose) (HPC).
Where [8] appears, read: dose: 50.0 mg/kg/injection, schedule: Q01DX009 (ip), vehicle: saline with Tween-80.
Setting [9] is: dose: 100.0 mg/kg/injection, schedule: Q01DX009 (ip), vehicle: saline with Tween-80.
The mark [10] stands for this setting: dose: 200.0 mg/kg/injection, schedule: Q01DX009 (ip), vehicle: saline with Tween-80.
The mark [11] stands for this setting: dose: 12.5 mg/kg/injection, schedule: Q01DX009 (ip), vehicle: saline with Tween-80.
Where [12] appears, read: dose: 25.0 mg/kg/injection, schedule: Q01DX009 (ip), vehicle: saline with Tween-80.
[13] abbreviates: dose: 200.0 mg/kg/injection, schedule: Q01DX009 (ip), vehicle: saline.
[14] abbreviates: dose: 100.0 mg/kg/injection, schedule: Q01DX009 (ip), vehicle: Klucel (hydroxypropylcellulose) (HPC).
Where [15] appears, read: dose: 200.0 mg/kg/injection, schedule: Q01DX009 (ip), vehicle: Klucel (hydroxypropylcellulose) (HPC).

Regarding `CCCCOCCN1CCN(CCCN2c3ccccc3Sc3ccc(C(F)(F)F)cc32)CC1`, the T/C by setting is: (dose: 0.29 mg/kg/injection, schedule: Q04DX003 (ip), vehicle: saline) 89 % of control; (dose: 0.58 mg/kg/injection, schedule: Q04DX003 (ip), vehicle: saline) 102 % of control; under setting [1], 112 % of control; (dose: 1.17 mg/kg/injection, schedule: Q04DX003 (ip), vehicle: saline) 107 % of control; under setting [2], 115 % of control; (dose: 2.34 mg/kg/injection, schedule: Q04DX003 (ip), vehicle: saline) 89 % of control. Also, under setting [3], the T/C is 107 % of control.
Take `COc1ccc([C@@H]2c3cc4c(cc3C[C@H]3COC(=O)[C@@H]32)OCO4)cc1OC`: the T/C is 124 % of control (dose: 11.0 mg/kg/injection, schedule: Q01DX009 (ip), vehicle: saline with Tween-80); 111 % of control (dose: 22.0 mg/kg/injection, schedule: Q01DX009 (ip), vehicle: saline with Tween-80); 124 % of control (dose: 33.0 mg/kg/injection, schedule: Q01DX009 (ip), vehicle: saline with Tween-80); 113 % of control (dose: 67.0 mg/kg/injection, schedule: Q01DX009 (ip), vehicle: saline with Tween-80).
Turning to `CN1CCCCC1CCN1c2ccccc2Sc2ccc(Br)cc21` (configuration not stated), the T/C runs as follows: under setting [1], 109 % of control; under setting [3], 105 % of control; under setting [4], 107 % of control; (dose: 12.5 mg/kg/injection, schedule: Q01DX009 (ip), vehicle: saline) 96 % of control.
`CC1(C)N=C(N)N=C(N)N1c1ccc(OCC(=O)Nc2ccc(S(=O)(=O)F)cc2)c(Cl)c1`: the T/C is 107 % of control under setting [5] and 124 % of control (dose: 100.0 mg/kg/injection, schedule: Q04DX003 (ip), vehicle: saline).
With `Oc1nc(/N=C2/N=c3ccc(Cl)cc3=N2)[nH]c1O`, the T/C is, setting by setting: (dose: 12.5 mg/kg/injection, schedule: Q01DX009 (ip), vehicle: Klucel (hydroxypropylcellulose) (HPC)) 86 % of control; under setting [6], 93 % of control; under setting [7], 86 % of control.
`O=c1cc(-c2ccccc2)[nH]c(-c2ccccc2)c1`: the T/C by setting is: (dose: 8.0 mg/kg/injection, schedule: Q01DX009 (ip), vehicle: saline with Tween-80) 95 % of control; (dose: 18.0 mg/kg/injection, schedule: Q01DX009 (ip), vehicle: saline with Tween-80) 97 % of control.
`CCCCCCCCN(C)N=Nc1ccc(Cl)cc1C(=O)O`: the T/C runs as follows: under setting [8], 103 % of control; under setting [9], 107 % of control.
Turning to `CC[CH2][Sn]([CH2]CC)([CH2]CC)[O][Sn]([CH2]CC)([CH2]CC)[CH2]CC`, the T/C is 95 % of control (dose: 0.25 mg/kg/injection, schedule: Q01DX009 (ip), vehicle: saline); 100 % of control (dose: 0.5 mg/kg/injection, schedule: Q01DX009 (ip), vehicle: saline); 117 % of control (dose: 0.5 mg/kg/injection, schedule: Q04DX003 (ip), vehicle: saline); 92 % of control (dose: 1.0 mg/kg/injection, schedule: Q01DX009 (ip), vehicle: saline); 117 % of control (dose: 1.0 mg/kg/injection, schedule: Q04DX003 (ip), vehicle: saline).
As to `Oc1ccc(Cl)c2cccnc12`, the T/C is 90 % of control (dose: 12.5 mg/kg/injection, schedule: Q01DX009 (ip), vehicle: carboxymethylcellulose (CMC)); 96 % of control (dose: 25.0 mg/kg/injection, schedule: Q01DX009 (ip), vehicle: carboxymethylcellulose (CMC)); 97 % of control (dose: 50.0 mg/kg/injection, schedule: Q01DX009 (ip), vehicle: carboxymethylcellulose (CMC)).
Take `O=CNC(CSSCC(NC=O)C(=O)O)C(=O)O` (configuration not stated): the T/C was 93 % of control under setting [9] and 95 % of control under setting [10].
Consider `Cc1ccc2c(ccc(/C=C/c3ccc(O)c4ncccc34)[n+]2C)c1`, for which the T/C under setting [11] is 113 % of control and the T/C under setting [12] was 103 % of control.
As for `C1=Cc2ccccc2/C1=C/c1cccc(/C=C2\C=Cc3ccccc32)c1`, the T/C (dose: 6.25 mg/kg/injection, schedule: Q01DX009 (ip), vehicle: saline with Tween-80) is 100 % of control and the T/C under setting [11] was 86 % of control.
For the compound `CCN(CC)[P+](c1ccccc1O)(N(CC)CC)N(CC)CC`, the T/C under setting [2] is 100 % of control; the T/C under setting [3] was 105 % of control; the T/C under setting [4] is 107 % of control and 114 % of control.
On to `CCCCCCCCCCCCc1ccc(CS)cc1`, for which the T/C by setting is: (dose: 100.0 mg/kg/injection, schedule: Q01DX009 (ip), vehicle: saline) 92 % of control; under setting [13], 89 % of control.
As for `O=C(Oc1ccc(Cl)cc1Cl)c1ccc([N+](=O)[O-])cc1`, the T/C was 87 % of control under setting [6] and 86 % of control under setting [14].
Consider `CC1(c2ccc(O)cc2)CCC(C(C)(C)c2ccc(O)cc2)CC1` (configuration not stated), for which the T/C is 87 % of control under setting [7], 96 % of control under setting [14] and 91 % of control under setting [15].
On to `Nc1ccccc1SC1CC(=O)N(c2ccccc2Cl)C1=O` (configuration not stated), for which the T/C reads like this: under setting [14], 94 % of control; under setting [15], 86 % of control.
In the case of `Cc1c2c(ccc3ccccc32)c[n+]2ccccc12`, the T/C by setting is: (dose: 1.56 mg/kg/injection, schedule: Q01DX009 (ip), vehicle: suspension in saline) 98 % of control; (dose: 3.12 mg/kg/injection, schedule: Q01DX009 (ip), vehicle: suspension in saline) 101 % of control; (dose: 6.25 mg/kg/injection, schedule: Q01DX009 (ip), vehicle: suspension in saline) 106 % of control; (dose: 12.5 mg/kg/injection, schedule: Q01DX009 (ip), vehicle: suspension in saline) 103 % of control.
With `CCN(C(=O)Nc1cccc2ccccc12)c1ccccc1`, the T/C under setting [14] was 102 % of control; the T/C under setting [15] is 88 % of control; the T/C (dose: 400.0 mg/kg/injection, schedule: Q01DX009 (ip), vehicle: Klucel (hydroxypropylcellulose) (HPC)) was 91 % of control.
For the compound `COC1C(O)CC(OC2CC(OC3CC(O[C@@H]4C(=O)c5c(cc6cc(OC7CC(OC8CC(O)C(O)C(C)O8)C(O)C(C)O7)c(C)c(O)c6c5O)C[C@H]4[C@H](OC)C(=O)[C@@H](O)[C@@H](C)O)OC(C)C3O)OC(C)C2O)OC1C` (some centres not stated), the T/C runs as follows: (dose: 188.0 micrograms/kg/injection, schedule: Q01DX009 (ip), vehicle: water) 106 % of control; (dose: 375.0 micrograms/kg/injection, schedule: Q01DX009 (ip), vehicle: water) 105 % of control; (dose: 750.0 micrograms/kg/injection, schedule: Q01DX009 (ip), vehicle: water) 121 % of control.
As to `CN(C)CCCc1c2ccccc2nc2ccc(Cl)cc12`, the T/C runs as follows: (dose: 12.5 mg/kg/injection, schedule: Q04DX003 (ip), vehicle: saline) 117 % of control; (dose: 25.0 mg/kg/injection, schedule: Q04DX003 (ip), vehicle: saline) 114 % of control; under setting [5], 108 % of control.
In the case of `O=C1C=C[C@H](O)[C@@]2(CO)O[C@@H]12`, the T/C is, setting by setting: (dose: 1.25 mg/kg/injection, schedule: Q01DX009 (ip), vehicle: saline with Tween-80) 101 % of control; (dose: 2.5 mg/kg/injection, schedule: Q01DX009 (ip), vehicle: saline with Tween-80) 101 % of control; (dose: 5.0 mg/kg/injection, schedule: Q01DX009 (ip), vehicle: saline with Tween-80) 122 % of control; (dose: 10.0 mg/kg/injection, schedule: Q01DX009 (ip), vehicle: saline with Tween-80) 104 % of control.
In the case of `Nc1ccc(N=Nc2ccc(S(=O)(=O)O)cc2)cc1`, the T/C was 93 % of control under setting [12]; 97 % of control under setting [8]; 90 % of control and 104 % of control under setting [9].
Turning to `Cc1ccc(S(=O)(=O)N2CCC(C(=O)O)(c3ccccc3)CC2)cc1`, the T/C by setting is: under setting [8], 113 % of control; under setting [9], 99 % of control; under setting [10], 103 % of control.
Regarding `CC(C)OCc1c(N)nc(=S)[nH]c1C(=O)O`, the T/C by setting is: (dose: 25.0 mg/kg/injection, schedule: Q01DX009 (ip), vehicle: saline) 92 % of control; (dose: 50.0 mg/kg/injection, schedule: Q01DX009 (ip), vehicle: saline) 86 % of control.
In the case of `Oc1ccc(C2(c3ccc(O)cc3)CCCCC2)cc1`, the T/C (dose: 50.0 mg/kg/injection, schedule: Q01DX009 (ip), vehicle: acetone) is 97 % of control.
Take `CCCCN(CCCC)CCCC#N`: the T/C under setting [13] was 92 % of control.
